# Measured values published in patent US20240279710A1, “FLUORESCENT PROBES” (TOHOKU TECHNO ARCH CO., LTD., priority 2021, published 2024).
# Experiments:
# [1] = system: iPS cell-derived three-dimensional stereoscopic retinal tissue; assay: Glutamic acid injury model of iPS cell-derived three-dimensional stereoscopic retinal tissue; format: cell-based, human
# Experimental: Next, to confirm a reaction under conditions closer to those of a living organism, the iPS cell-derived three-dimensional stereoscopic retinal tissue on the 60th day of the differentiation induction was left at rest in a 24-well plate containing 1 mL of a reaction medium (obtained by adding CaCl2 (final concentration: 2.4 mM) and HEPES (final concentration: 20 mM) to a HBSS solution) in each well (n=5). The tissue was washed with 1 mL of the reaction medium twice, and glutamic acid was added thereto so that its final concentration became 0 μM, 300 μM, or 1 mM, followed by a reaction for 1 hour. Compound 19 was added to the resultant 1 hour after the addition of glutamic acid so that its final concentration became 0 μM, 0.25 μM, 1.2 μM, or 5.0 μM, and an image of the fluorescence of the mixture was taken with a fluorescence microscope (ZEISS Axio Vert.A1) (a RGB mode (lower stage) and a B/W mode (upper stage)) 1 hour thereafter. In all image-taking operations, an exposure time was fixed to 200 ms. The results of groups in which the final concentrations of glutamic acid are 0 μM, 300 μM, and 1 mM are shown in FIG. 25, FIG. 26, and FIG. 27, respectively. […] In addition, a graphical representation of an average calculated from fluorescence intensities in the images taken in the B/W mode (n=3) is shown in FIG. 28. […] In addition, results obtained by comparing and examining the fluorescence intensities of Compound 19 and Compound 16 are shown in FIG. 29.
# [2] = target: T1, calpain-1 from human erythrocytes (Homo sapiens, UniProt P07384); assay: Fluorescence assay with calpain-1; format: biochemical; settings: 10 μM probe, 17.4 U/mL calpain-1, 5 mM CaCl2, 37° C., FIG. 4
# T1 construct: calpain-1 from human erythrocytes; purchased Merck Millipore 208713; host or cells: human erythrocytes (natural source)
# T1 sequence (P07384 1-714): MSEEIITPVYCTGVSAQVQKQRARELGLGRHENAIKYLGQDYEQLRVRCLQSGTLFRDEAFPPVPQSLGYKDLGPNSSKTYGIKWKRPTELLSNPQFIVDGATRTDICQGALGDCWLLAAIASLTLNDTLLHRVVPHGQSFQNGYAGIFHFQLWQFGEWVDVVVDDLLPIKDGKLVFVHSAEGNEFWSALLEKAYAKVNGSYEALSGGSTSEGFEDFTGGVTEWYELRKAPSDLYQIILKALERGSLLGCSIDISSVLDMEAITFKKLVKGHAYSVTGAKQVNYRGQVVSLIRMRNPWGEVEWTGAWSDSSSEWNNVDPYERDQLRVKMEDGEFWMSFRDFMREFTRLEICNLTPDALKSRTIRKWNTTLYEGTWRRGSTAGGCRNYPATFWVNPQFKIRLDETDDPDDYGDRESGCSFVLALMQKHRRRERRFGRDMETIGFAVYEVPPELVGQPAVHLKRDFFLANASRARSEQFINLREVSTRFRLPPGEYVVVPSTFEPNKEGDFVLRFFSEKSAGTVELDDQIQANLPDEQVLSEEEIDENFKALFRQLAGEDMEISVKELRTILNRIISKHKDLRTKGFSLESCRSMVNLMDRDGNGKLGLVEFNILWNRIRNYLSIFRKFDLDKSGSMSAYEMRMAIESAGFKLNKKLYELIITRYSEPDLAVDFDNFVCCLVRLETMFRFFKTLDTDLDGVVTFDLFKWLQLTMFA
# T1 sequence (P04632 1-268 partner): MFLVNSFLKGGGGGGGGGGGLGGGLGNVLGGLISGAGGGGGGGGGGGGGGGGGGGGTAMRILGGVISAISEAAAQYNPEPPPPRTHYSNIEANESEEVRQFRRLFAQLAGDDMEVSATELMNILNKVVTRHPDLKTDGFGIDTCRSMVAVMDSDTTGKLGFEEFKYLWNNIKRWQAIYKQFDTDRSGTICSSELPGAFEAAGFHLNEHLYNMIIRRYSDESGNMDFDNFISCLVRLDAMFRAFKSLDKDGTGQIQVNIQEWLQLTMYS
# Experimental: The fluorescence assays of Compound 19 and Compound 16 with time were performed. Specifically, 17.4 U/mL of calpain-1 and 5 mM CaCl2 were added to a 50 mM TRIS buffer (pH: 7.4, 2 mM EGTA, 2 mM DTE) containing 10 μM of each of the synthesized fluorescent probes to perform an enzyme reaction at 37° C. Each of the compounds to which calpain-1 and CaCl2 were not added was similarly subjected as a negative control to the measurement.
# The fluorescence assays of Compounds 16 to 36 were similarly performed. 50 Units per milliliter (Compounds 16 and 19 to 25) or 17.4 U/mL (Compounds 16 to 18 and 26 to 36) of calpain-1 and 5 mM CaCl2 were added to a 50 mM TRIS buffer (pH: 7.4, 2 mM EGTA, 2 mM DTE) containing 10 μM of each of the synthesized fluorescent probes to perform an enzyme reaction at 37° C.
# Next, similar fluorescence assays of Compounds 37, 42, 45, 48, 51, 53, 55, 57, and 59 with calpain-1 were performed. Specifically, 17.4 U/mL of calpain-1 and 5 mM CaCl2 were added to a 50 mM TRIS buffer (pH: 7.4, 2 mM EGTA, 2 mM DTE) containing 10 μM of each of the synthesized fluorescent probes to perform an enzyme reaction at 37° C. Each of the compounds to which calpain-1 was not added was used as a control.
# To evaluate an influence of a R^12-L-O— group on the reactivity of each of compounds having the same amino acids with calpain-1, the fluorescence assays of Compounds 37 to 66 with calpain-1 were performed in accordance with the above-mentioned method. Specifically, 17.4 U/mL of calpain-1 and 5 mM CaCl2 were added to a 50 mM TRIS buffer (pH: 7.4, 2 mM EGTA, 2 mM DTE) containing 10 μM of each of the synthesized fluorescent probes to perform an enzyme reaction at 37° C., followed by the measurement of an increase in fluorescence intensity of each of the compounds 10 minutes after the addition of calpain-1.
structure (smiles),measurement,setting,value
COCC(=O)N[C@@H](CC(C)C)C(=O)N[C@@H](CCSC)C(=O)Nc1ccc2c(c1)Oc1cc(N)ccc1C21OCc2ccccc21 (some centres unmarked) [Compound 19],fluorescence images of retinal tissue,"[1]; glutamic acid 300 μM or 1 mM, probe 0, 0.25, 1.2 or 5.0 μM, 1 hour, FIG. 26, FIG. 27",enhancement of fluorescence expression was observed in proportion to the concentration of Compound 19
same,fluorescence intensity compared with Compound 16,"[1]; glutamic acid 1 mM, probe 0.25 μM, 1.2 μM, or 5.0 μM, FIG. 29",stronger fluorescence than that of Compound 16
same,average fluorescence intensity of retinal tissue (B/W mode),"[1]; same glutamic acid concentration (0 μM, 300 μM, 1 mM), probe 0 to 5.0 μM, FIG. 28",fluorescence was strongly observed in a manner dependent on the concentration of Compound 19
same,change in fluorescence intensity with time by calpain-1,"[2]; excitation 475 nm, fluorescence 500-550 nm",functioned as a fluorescent probe for calpain-1
same,reactivity with calpain-1 compared with Compound 16 (fluorescence with time),[2],further improved in reactivity with calpain-1
